Test results published in patent publication EP0765320B1, “BENZIMIDAZOLONE DERIVATIVES WITH CENTRAL DOPAMINERGIC ACTIVITY” (PFIZER INC., priority 1994, dated 1995).
pIC50: −log10 of the molar value.

Columns and labels:
D2 receptor = D2 receptor (Homo sapiens, UniProt P14416); assay: D2 receptor binding in an assay similar to the D4 [3H]Spiperone binding assay; conditions: assay similar to the described [3H]Spiperone binding assay
Protocol: (§1) The determination of D4 dopaminergic activity has been described by Van Tol et al., Nature, vol. 350, 610 (London, 1991). Clonal cell lines expressing the human dopamine D4 receptor are harvested and homogenized (teflon pestle) in a 50 mM Tris:HCI (pH 7.4 at 4°C) buffer containing 5 mM EDTA, 1.5 mM calcium chloride (CaCl2), 5 mM magnesium chloride (MgCL2), 5mM potassium chloride (KCI) and 120 mM sodium chloride (NaCI). The homogenates are centrifugated for 15 min. at 39,000 g, and the resulting pellets resuspended in a buffer at a concentration of 150-250 µg/ml. For saturation experiments, 0.25 ml aliquots of tissue homogenate are incubated in duplicate with increasing concentrations of [^3H] Spiperone (70.3 Ci/mmol; 10-3000 pM final concentration) for 30-120 minutes at 22°C in a total volume of 1 ml. […] Assays are terminated by rapid filtration through a Titertek cell harvester and the filters subsequently monitored for tritium as described by Sunahara, R.K. et al., Nature, 346, 76-80 (1990). […] Both saturation and competition binding data are analyzed by the non-linear least square curve-fitting program Ligand run on a digital Micro-PP-11 as described by Sunahara et al.

[1] = biological target: T1, human dopamine D4 receptor (Homo sapiens, UniProt P21917); assay: D4 dopaminergic activity: [3H]Spiperone competition binding (assay similar to the one described); conditions: assay similar to the [3H]Spiperone binding assay on clonal cell lines expressing the human dopamine D4 receptor
T1 construct: expressed in transfected cells
T1 sequence (P21917 1-419): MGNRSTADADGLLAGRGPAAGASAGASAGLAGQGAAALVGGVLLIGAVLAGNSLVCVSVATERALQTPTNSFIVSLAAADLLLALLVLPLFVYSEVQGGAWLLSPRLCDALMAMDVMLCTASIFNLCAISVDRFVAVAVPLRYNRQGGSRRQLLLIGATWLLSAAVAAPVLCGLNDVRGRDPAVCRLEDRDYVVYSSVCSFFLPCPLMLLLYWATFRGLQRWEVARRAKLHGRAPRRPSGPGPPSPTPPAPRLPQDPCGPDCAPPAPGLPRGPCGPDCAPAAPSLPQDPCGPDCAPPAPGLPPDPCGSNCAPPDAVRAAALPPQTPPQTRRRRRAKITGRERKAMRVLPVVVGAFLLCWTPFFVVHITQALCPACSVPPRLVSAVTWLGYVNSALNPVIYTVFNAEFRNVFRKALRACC
Protocol: The D4 dopaminergic activity of the compounds of the present invention may be determined by the following procedure.
as §1

D2 receptor, sequence (P14416 whole entry): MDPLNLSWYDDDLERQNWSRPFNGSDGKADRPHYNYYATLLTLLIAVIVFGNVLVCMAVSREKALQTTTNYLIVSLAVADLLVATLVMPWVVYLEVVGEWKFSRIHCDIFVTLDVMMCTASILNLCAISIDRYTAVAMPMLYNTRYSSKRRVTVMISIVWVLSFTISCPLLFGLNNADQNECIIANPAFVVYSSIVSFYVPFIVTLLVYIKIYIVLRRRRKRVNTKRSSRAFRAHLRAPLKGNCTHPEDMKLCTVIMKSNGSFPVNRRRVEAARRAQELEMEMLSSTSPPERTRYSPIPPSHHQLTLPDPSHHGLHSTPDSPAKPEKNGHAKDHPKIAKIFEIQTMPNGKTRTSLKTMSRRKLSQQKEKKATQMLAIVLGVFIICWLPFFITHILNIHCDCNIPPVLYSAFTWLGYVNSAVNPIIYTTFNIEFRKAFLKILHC

Row | pIC50 (D2 receptor) | pIC50 [1] | SMILES
1 | 5.48 to 6.00 | ≥ 6.96 | O=c1[nH]c2ccccc2n1CCCN1CCN(c2ccc(Cl)cn2)CC1 [Example 1, 1-{3-[4-(5-Chloro-pyridin-2-yl)-piperazin-1-yl]-propyl}-1,3-dihydrobenzoimidazol-2-one]
2 | 5.48 to 6.00 | ≥ 6.96 | O=c1[nH]c2ccccc2n1CCCN1CCN(c2ccc(C(F)(F)F)cn2)CC1 [Example 4, 1-{3-[4-(5-Trifluoromethyl-pyridin-2-yl)-piperazine-1-yl]-propyl}-1,3-dihydrobenzoimidazol-2-one]
